# Laboratory results from patent publication US7572770B2, “Use of an interleukin 1 receptor antagonist and/or pyrrolidinedithiocarbamate for the treatment or prophylaxis of type 2 diabetes” (University of Zurich, priority 2002, dated 2009).
# Tests used:
# Format in all cases: cell-based
# NF-κB = NF-κB activation in human islets; conditions: 33.3 mM glucose with IL-1Ra 500 ng/ml, 44 hours
# Protocol: Western blot analysis. Islets were cultured in a culture medium in non-adherent plastic dishes. One day after isolation, the medium was changed and groups of 200 islets were incubated for 44 hours in culture medium containing 5.5 or 33.3 mM glucose without or with 2 ng/ml IL-1β or 500 ng/ml IL-1Ra. At the end of the incubations, islets were washed in PBS, suspended in 50 μl sample buffer containing 125 mM Tris-HCl, pH 6.8, 4% SDS, 10% glycerol, 0.3% bromphenol blue, 1.8% β-mercaptoethanol and boiled for 5 min. Equivalent amounts of each treatment group were run on 15% SDS polyacrylamide gels. […] Intensity of bands was analyzed using Multianalyst™ (Bio Rad, Laboratories inc., Hercules, Calif.). […] Activation of NF-κB complex was quantified with an ELISA-based Kit, using attached oligonucleotides binding to a NF-κB consensus site and detected by an anti-p65 or p50 subunit antibody, according to the manufacturer's instructions (Trans-AM™ NFκB, Active Motif). […] Sections were incubated with mouse anti-NF-κB (p65) (1:50 dilution) or rabbit anti-IκB (1:50 dilution, C-21, Santa Cruz) antibodies, detected by donkey anti-mouse or anti-rabbit Cy3 conjugated antibodies and double stained for insulin as described above.
# Fas = Fas expression in human islets (Western blot, RT-PCR, immunostaining); conditions: 33.3 mM glucose with IL-1Ra
# Protocol: Western blot analysis. Islets were cultured in a culture medium in non-adherent plastic dishes. One day after isolation, the medium was changed and groups of 200 islets were incubated for 44 hours in culture medium containing 5.5 or 33.3 mM glucose without or with 2 ng/ml IL-1β or 500 ng/ml IL-1Ra. At the end of the incubations, islets were washed in PBS, suspended in 50 μl sample buffer containing 125 mM Tris-HCl, pH 6.8, 4% SDS, 10% glycerol, 0.3% bromphenol blue, 1.8% β-mercaptoethanol and boiled for 5 min. Equivalent amounts of each treatment group were run on 15% SDS polyacrylamide gels. […] Intensity of bands was analyzed using Multianalyst™ (Bio Rad, Laboratories inc., Hercules, Calif.).
# RNA extraction, RT-PCR and sequencing of RT-PCR product. […] The conditions of the PCR amplification for IL-1β and Fas were: denaturation 30 seconds at 94° C., annealing 30 seconds at 60° C. and elongation 30 seconds at 72° C., followed for real time PCR by quantification 5 seconds at 80° C., 45 cycles. […] For quantitative analysis, we used the Light Cycler quantitative PCR system (Roche, Basel, Switzerland) and performed quantitative PCR with a commercial kit (Light Cycler-DNA Master SYBR Green I; Roche). […]
# IL-1β = IL-1β release from human blood monocytes exposed to leptin
# Protocol: Human blood monocytes were isolated as described previously (37), cultured in RPMI 1640 (Invitrogen) containing 100 U/ml penicillin, 100 μg/ml streptomycin and 10% fetal calf serum and exposed to 10 or 500 nM leptin.
# Cytokine release. Cytokine release was evaluated in the culture medium collected before the termination of each experiment using human IL-1β and IL-1Ra ELISA kits (R&D Systems Inc.).
substance,measurement,setting,value
Interleukin 1 receptor antagonist [IL-1Ra],glucose-induced increase in NF-κB activity,NF-κB,prevented
same,glucose-dependent induction of Fas-receptor protein and mRNA,Fas,hindered
leptin: rh leptin (PeproTech); protein encoded by the ob gene,IL-1β release from peripheral blood monocytes,IL-1β; 15 hours,increased IL-1β release
same,IL-1β release from peripheral blood monocytes,IL-1β; 48 hours,did not significantly affect IL-1β release
